Data from ChEMBL document CHEMBL1154287, “Phenylaminopyrimidines as inhibitors of Janus kinases (JAKs)” (Bioorg Med Chem Lett, 2009).

Tests used:
[1] = tested on: BaF3; assay: cells; details: Mus musculus, BaF3, 72 h
Description: Antiproliferative activity against mouse BAF3 cells expressing TEL-JAK2 kinase after 72 hrs by alamar blue assay

[2] = target: Tyrosine-protein kinase JAK2 (Homo sapiens, UniProt O60674)
Description: Inhibition of GST-tagged JAK2 kinase

[3] = target: T1, Tyrosine-protein kinase JAK3 (Homo sapiens, UniProt P52333)
T1 sequence (P52333 whole entry): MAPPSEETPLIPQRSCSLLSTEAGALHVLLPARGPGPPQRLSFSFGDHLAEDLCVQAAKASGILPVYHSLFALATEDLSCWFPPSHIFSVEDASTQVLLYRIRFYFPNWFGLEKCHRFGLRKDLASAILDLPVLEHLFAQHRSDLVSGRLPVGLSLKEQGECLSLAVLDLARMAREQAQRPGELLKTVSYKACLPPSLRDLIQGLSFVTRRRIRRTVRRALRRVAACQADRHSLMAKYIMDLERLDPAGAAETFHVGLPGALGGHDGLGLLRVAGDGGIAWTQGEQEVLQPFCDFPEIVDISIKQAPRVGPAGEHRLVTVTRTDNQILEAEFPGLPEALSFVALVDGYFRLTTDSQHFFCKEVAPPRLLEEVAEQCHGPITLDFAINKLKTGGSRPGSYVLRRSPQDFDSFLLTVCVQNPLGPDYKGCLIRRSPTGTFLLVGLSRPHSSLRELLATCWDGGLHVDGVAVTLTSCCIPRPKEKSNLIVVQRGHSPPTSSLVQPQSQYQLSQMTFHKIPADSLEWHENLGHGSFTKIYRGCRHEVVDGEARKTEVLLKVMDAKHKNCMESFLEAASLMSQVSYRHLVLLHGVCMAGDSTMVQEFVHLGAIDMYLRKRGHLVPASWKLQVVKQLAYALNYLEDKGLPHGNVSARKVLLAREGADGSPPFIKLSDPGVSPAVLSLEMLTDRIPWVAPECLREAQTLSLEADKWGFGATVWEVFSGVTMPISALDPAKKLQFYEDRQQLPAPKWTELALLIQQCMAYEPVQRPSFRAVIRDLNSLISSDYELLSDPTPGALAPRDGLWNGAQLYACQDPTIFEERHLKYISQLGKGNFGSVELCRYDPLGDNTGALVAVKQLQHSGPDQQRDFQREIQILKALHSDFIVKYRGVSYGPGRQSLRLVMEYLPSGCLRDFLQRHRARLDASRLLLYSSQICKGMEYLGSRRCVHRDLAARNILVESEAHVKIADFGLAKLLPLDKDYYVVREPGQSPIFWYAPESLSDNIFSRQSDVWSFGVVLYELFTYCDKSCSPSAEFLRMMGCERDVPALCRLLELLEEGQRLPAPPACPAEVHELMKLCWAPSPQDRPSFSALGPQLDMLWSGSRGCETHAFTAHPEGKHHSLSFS
Description: Inhibition of GST-tagged JAK3 kinase

[4] = cells; details: Mus musculus, CTLL-2, 72 h
Description: Antiproliferative activity against IL-2-stimulated mouse CTLL-2 cells expressing JAK1/JAK3 after 72 hrs by alamar blue assay

[5] = tested on: BaF3; assay: cells; details: Mus musculus, BaF3, 72 h; remark: listed apart in the source
Description: Antiproliferative activity against mouse BAF3 cells expressing TEL-JAK3 kinase after 72 hrs by alamar blue assay

[6] = Apparent permeability from basolateral to apical side in human Caco-2 cells; type: ADME, cell-based
[7] = in vitro; details: human, Caco-2
Description: Ratio of permeability from apical to basolateral side over basolateral to apical side in human Caco-2 cells

[8] = in vitro; details: human, Caco-2; remark: listed apart in the source
Description: Apparent permeability from apical to basolateral side in human Caco-2 cells

[9] = Antiproliferative activity against human SET2 cells expressing JAK2 V617F mutant kinase after 72 hrs by alamar blue assay; type: functional, cell-based; details: SET-2, 72 h
[10] = Blood clearance in Sprague-Dawley rat at 18 mg/kg, po; type: ADME, organism-based; design: dose 18 mg/kg, route oral
[11] = Cmax in Sprague-Dawley rat at 18 mg/kg, po; type: ADME, organism-based; design: dose 18 mg/kg, route oral; details: in vivo
[12] = tested on: K562; assay: cells; details: Homo sapiens, K562, 72 h
Description: Antiproliferative activity against human K562 cells after 72 hrs by alamar blue assay

[13] = Tmax in Sprague-Dawley rat at 18 mg/kg, po; type: ADME, organism-based; design: dose 18 mg/kg, route oral; details: in vivo
[14] = Apparent half life in Sprague-Dawley rat at 18 mg/kg, po; type: ADME, organism-based; design: dose 18 mg/kg, route oral; details: in vivo
[15] = tested on: BaF3; assay: Antiproliferative activity against mouse BAF3 cells expressing wild type JAK2 kinase after 72 hrs by alamar blue assay in presence of IL-3; type: functional, cell-based; details: BaF3, 72 h

Chain of Tyrosine-protein kinase JAK2 (O60674 whole entry): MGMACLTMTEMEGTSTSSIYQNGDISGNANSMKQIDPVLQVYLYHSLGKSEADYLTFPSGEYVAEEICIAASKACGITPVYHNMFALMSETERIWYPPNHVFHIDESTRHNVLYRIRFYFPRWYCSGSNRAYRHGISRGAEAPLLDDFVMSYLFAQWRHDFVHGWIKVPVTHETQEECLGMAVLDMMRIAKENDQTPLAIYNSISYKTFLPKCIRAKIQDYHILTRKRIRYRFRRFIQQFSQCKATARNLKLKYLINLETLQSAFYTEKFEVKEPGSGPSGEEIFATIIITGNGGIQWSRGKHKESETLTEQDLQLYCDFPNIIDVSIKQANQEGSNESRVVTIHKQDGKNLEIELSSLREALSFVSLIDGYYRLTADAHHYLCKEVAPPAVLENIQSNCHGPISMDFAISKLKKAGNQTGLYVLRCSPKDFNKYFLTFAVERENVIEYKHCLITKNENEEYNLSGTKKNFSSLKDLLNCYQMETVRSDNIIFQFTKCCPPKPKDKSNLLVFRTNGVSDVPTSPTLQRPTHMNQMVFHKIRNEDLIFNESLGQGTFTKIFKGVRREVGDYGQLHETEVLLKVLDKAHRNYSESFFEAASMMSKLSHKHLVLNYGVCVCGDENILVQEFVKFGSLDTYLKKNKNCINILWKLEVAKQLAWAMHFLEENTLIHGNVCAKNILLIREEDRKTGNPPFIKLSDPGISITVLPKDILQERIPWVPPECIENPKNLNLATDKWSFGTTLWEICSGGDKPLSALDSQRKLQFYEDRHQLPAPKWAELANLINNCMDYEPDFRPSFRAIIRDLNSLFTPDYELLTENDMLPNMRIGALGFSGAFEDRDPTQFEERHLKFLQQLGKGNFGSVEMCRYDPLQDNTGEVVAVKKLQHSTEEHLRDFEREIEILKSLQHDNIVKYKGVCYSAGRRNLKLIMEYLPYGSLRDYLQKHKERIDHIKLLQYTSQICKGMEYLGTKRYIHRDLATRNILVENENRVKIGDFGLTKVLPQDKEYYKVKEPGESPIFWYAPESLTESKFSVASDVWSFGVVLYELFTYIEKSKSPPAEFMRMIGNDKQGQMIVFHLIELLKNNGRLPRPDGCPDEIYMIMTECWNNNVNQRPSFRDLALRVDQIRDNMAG

| IC50 [1] | IC50 [2] | IC50 [3] | IC50 [4] | IC50 [5] | Structure (SMILES) | other results |
| --- | --- | --- | --- | --- | --- | --- |
| 3520 nM | 88 nM | – | – | – | Cc1cc(-c2ccnc(Nc3ccc(N4CCOCC4)cc3)n2)cc(C)c1O | – |
| 3110 nM | 67 nM | – | – | – | CC(=O)Nc1ccc(-c2ccnc(Nc3ccc(N4CCOCC4)cc3)n2)cc1 | – |
| 10300 nM | 303 nM | 1760 nM | 18900 nM | > 20000 nM | N#CCC(=O)Nc1cccc(-c2ccnc(Nc3ccc(N4CCOCC4)cc3)n2)c1 | – |
| 2200 nM | 69 nM | – | 1510 nM | 6240 nM | N#CCNC(=O)c1ccc(-c2ccnc(Nc3ccc(N4CCSCC4)cc3)n2)cc1 | – |
| 2040 nM | 52 nM | – | 7900 nM | 9980 nM | N#CCNC(=O)c1ccc(-c2ccnc(Nc3ccc(CN4CCS(=O)(=O)CC4)cc3)n2)cc1 | – |
| 433 nM | 8 nM | 85 nM | 240 nM | 5960 nM | Cc1cnc(Nc2ccc(N3CCOCC3)cc2)nc1-c1ccc(C(=O)NCC#N)cc1 | – |
| > 20000 nM | 545 nM | > 5000 nM | > 20000 nM | > 20000 nM | N#CCNC(=O)c1cccc(-c2ccnc(Nc3ccc(N4CCOCC4)cc3)n2)c1 | – |
| 9820 nM | 132 nM | > 1000 nM | 8030 nM | > 20000 nM | N#CCNCc1cccc(-c2ccnc(Nc3ccc(N4CCOCC4)cc3)n2)c1 | – |
| 720 nM | – | – | 915 nM | 4200 nM | N#CCC(=O)Nc1ccc(-c2ccnc(Nc3ccc(N4CCOCC4)cc3)n2)cc1 | – |
| 1140 nM | 116 nM | 274 nM | 1260 nM | 3280 nM | N#CCNC(=O)c1ccc(-c2ccnc(Nc3ccc(N4CCOCC4)c(F)c3)n2)cc1 | – |
| 2560 nM | – | 1880 nM | 3770 nM | 7450 nM | N#CCNC(=O)c1ccc(-c2ccnc(Nc3cccc(N4CCOCC4)c3)n2)cc1 | – |
| 380 nM | 3 nM | 62 nM | < 160 nM | 2550 nM | COc1cc(-c2ccnc(Nc3ccc(N4CCOCC4)cc3)n2)ccc1O | – |
| 234 nM | 6 nM | 110 nM | 569 nM | 240 nM | CS(=O)(=O)Nc1ccc(-c2ccnc(Nc3cccc(CN4CCCC4)c3)n2)cc1 | – |
| 580 nM | 11 nM | 538 nM | 735 nM | 730 nM | CS(=O)(=O)Nc1ccc(-c2ccnc(Nc3ccc(CN4CCCCC4)cc3)n2)cc1 | – |
| 812 nM | 8 nM | 930 nM | 2660 nM | 1730 nM | CS(=O)(=O)Nc1ccc(-c2ccnc(Nc3cccc(CN4CCOCC4)c3)n2)cc1 | – |
| 2630 nM | 65 nM | > 1000 nM | 2040 nM | 7570 nM | Cc1cc(-c2ccnc(Nc3ccc(N4CCOCC4)cc3)n2)ccc1C(=O)NCC#N | – |
| 205 nM | 30 nM | 9 nM | 245 nM | 275 nM | COc1cc(-c2ccnc(Nc3ccc(N4CCOCC4)cc3)n2)ccc1C(=O)NCC#N | – |
| 6340 nM | 298 nM | 1420 nM | 4170 nM | 16900 nM | CN(CC#N)C(=O)c1ccc(-c2ccnc(Nc3ccc(N4CCOCC4)cc3)n2)cc1 | – |
| 3720 nM | 549 nM | 3910 nM | – | 4250 nM | CC(C)(C#N)NC(=O)c1ccc(-c2ccnc(Nc3ccc(N4CCOCC4)cc3)n2)cc1 | – |
| 771 nM | 12 nM | 636 nM | 6760 nM | 1940 nM | CS(=O)(=O)Nc1ccc(-c2ccnc(Nc3cccc(CN4CCC(O)CC4)c3)n2)cc1 | – |
| 896 nM | 9 nM | > 1000 nM | 1670 nM | 1940 nM | CS(=O)(=O)Nc1ccc(-c2ccnc(Nc3ccc(CN4CCOCC4)cc3)n2)cc1 | – |
| 840 nM | 166 nM | 362 nM | 3680 nM | 1100 nM | CCN(CC)CCCOc1ccc(Nc2nccc(-c3ccc(C(=O)NCC#N)cc3)n2)cc1 | – |

| IC50 [1] | IC50 [2] | IC50 [3] | IC50 [4] | IC50 [5] | Structure (SMILES) | other results |
| --- | --- | --- | --- | --- | --- | --- |
| 2800 nM | 163 nM | 1450 nM | 5070 nM | 9500 nM | N#CCNC(=O)c1ccc(-c2ccnc(Nc3ccc(CN4CCOCC4)cc3)n2)cc1 | – |
| 892 nM | 16 nM | 1620 nM | 5610 nM | 2200 nM | CS(=O)(=O)Nc1ccc(-c2ccnc(Nc3ccc(CN4CCC(O)CC4)cc3)n2)cc1 | – |
| 941 nM | 14 nM | 960 nM | 5180 nM | 3140 nM | CN1CCN(Cc2cccc(Nc3nccc(-c4ccc(NS(C)(=O)=O)cc4)n3)c2)CC1 | – |
| 423 nM | 47 nM | 152 nM | 1850 nM | 1230 nM | CCN1CCN(Cc2ccc(Nc3nccc(-c4ccc(C(=O)NCC#N)cc4)n3)cc2)CC1 | – |
| 525 nM | – | 192 nM | 1830 nM | 2050 nM | CN1CCN(c2ccc(Nc3nccc(-c4ccc(C(=O)NCC#N)cc4)n3)cc2)CC1 | – |
| 1000 nM | 18 nM | > 1000 nM | 1550 nM | 3430 nM | CN1CCN(Cc2ccc(Nc3nccc(-c4ccc(NS(C)(=O)=O)cc4)n3)cc2)CC1 | – |
| > 20000 nM | – | – | – | – | N#Cc1ccc(-c2ccnc(Nc3ccc(N4CCOCC4)cc3)n2)cc1 | – |
| 396 nM | 4 nM | 351 nM | 489 nM | 3940 nM | CS(=O)(=O)Nc1ccc(-c2ccnc(Nc3ccc(N4CCOCC4)cc3)n2)cc1 | – |
| 933 nM | 6 nM | 149 nM | 1490 nM | 6550 nM | CS(=O)(=O)Nc1ccc(-c2ccnc(Nc3ccc(N4CCC(O)CC4)cc3)n2)cc1 | – |
| 8500 nM | – | – | 6160 nM | > 20000 nM | COc1cnc(Nc2ccc(N3CCOCC3)cc2)nc1-c1ccc(C(=O)NCC#N)cc1 | – |
| 1240 nM | – | 2020 nM | 3990 nM | 1710 nM | N#CCNC(=O)c1ccc(-c2ccnc(Nc3ccc(N4CCOCC4)c(C(F)(F)F)c3)n2)cc1 | – |
| 8520 nM | 322 nM | – | – | – | Nc1cccc(-c2ccnc(Nc3ccc(N4CCOCC4)cc3)n2)c1 | – |
| 5220 nM | 202 nM | – | – | – | O=C(NCc1ccco1)c1ccc(-c2ccnc(Nc3ccc(N4CCOCC4)cc3)n2)cc1 | – |
| – | 467 nM | – | – | – | c1ccc(-c2ccnc(Nc3ccc(N4CCOCC4)cc3)n2)cc1 | – |
| 5560 nM | 326 nM | – | – | – | NC(=O)c1ccc(-c2ccnc(Nc3ccc(N4CCOCC4)cc3)n2)cc1 | – |
| 5620 nM | 16 nM | – | – | – | COc1cc(-c2ccnc(Nc3ccc(N4CCOCC4)cc3)n2)ccc1N | – |
| – | 83 nM | – | – | – | NS(=O)(=O)c1ccc(-c2ccnc(Nc3ccc(N4CCOCC4)cc3)n2)cc1 | – |
| 3730 nM | 81 nM | – | – | – | Cc1nccn1Cc1ccc(-c2ccnc(Nc3ccc(N4CCOCC4)cc3)n2)cc1 | – |
| 7130 nM | 33 nM | – | – | – | c1cc(-c2ccc3[nH]ccc3c2)nc(Nc2ccc(N3CCOCC3)cc2)n1 | – |
| – | – | – | – | – | OC[C@@H](O)[C@@H](O)[C@H](O)[C@H](O)CO [MANNITOL] | Papp B→A [6]: 1.1 ×10⁻⁶ cm/s; efflux ratio [7]: 1.5; Papp A→B [8]: 0.7 ×10⁻⁶ cm/s |
| 798 nM | – | – | 1250 nM | 2420 nM | N#CCNC(=O)c1ccc(-c2ccnc(Nc3ccc(N4CCOCC4)cc3)n2)cc1 [MOMELOTINIB] | Papp B→A [6]: 27.3 ×10⁻⁶ cm/s; IC50 [9]: 232 nM; CL/F [10]: 6.3 mL/min/kg; Cmax [11]: 40.4 µM; IC50 [12]: > 20000 nM; Tmax [13]: 4 h; half-life [14]: 2.4 h; IC50 [15]: 1430 nM; Papp A→B [8]: 30.4 ×10⁻⁶ cm/s |
| – | – | – | – | – | CC(C)NCC(O)COc1cccc2ccccc12 (configuration not stated) [PROPRANOLOL] | Papp B→A [6]: 48.8 ×10⁻⁶ cm/s; efflux ratio [7]: 1.3; Papp A→B [8]: 38.7 ×10⁻⁶ cm/s |
